Results: publication PMC12648288, “Drastic Impact of Donor Substituents on Xanthenes in the PDT of Glioblastoma” (JACS Au, 2025)

Assays:
[1] = type: physicochemical; settings: pH 5.4
Procedure: Before singlet oxygen trapping experiments were conducted, the photostability of NSeMorph and NSeAze was evaluated under irradiation with a 660 nm LED light source (24.3 mW/cm^2). […] Subsequently, their singlet oxygen generation capabilities were assessed in PBS buffer. 2,2′-(Anthracene-9,10-diyl)-bis(methylene)-dimalonic acid was used as a singlet oxygen trap to determine the quantum yields of singlet oxygen generation (ΦΔ). […] Furthermore, the ROS generation capabilities of the PSs were also evaluated using singlet oxygen sensor green (SOSG).
The gradual but pronounced lysosomal accumulation over time of NSeMoprh, coupled with only moderate mitochondrial targeting, restrict its ability to induce cell death via direct mitochondrial ROS production effectively. Conversely, NSeAze achieves rapid and efficient mitochondrial localization within the first hour of treatment in addition to significant lysosomal localization as well. […] To eliminate the possibility of degradation in lysosomes due to their acidic nature, the stabilities of both NSeMorph and NSeAze were evaluated at different pHs under both dark and light conditions.
Figure S5. Photostability of NSeMorph (20 μM) in sodium citrate buffer (1% DMSO) a. pH 5.4 and e. pH 6.4 upon irradiation with LED light (660 nm, 100 s total irradiation time) and its time dependent absorbance profile at b. pH 5.4, f. pH 6.4. […]

U118MG cells [2] = test: Lipid peroxidation (TBARS); type: cell-based, human; settings: IC50 concentration, PDT, up to 24 h postirradiation, % of untreated control
Procedure: (§1) Further analysis was conducted to elucidate mitochondrial- or lysosomal-localization-dependent cell death mechanisms. For this purpose, lipid peroxidation, a major end product of ROS-mediated cellular damage, was assessed. […] Moreover, the pronounced rise in lipid peroxidation was predominantly evident during the 24 h resting stage rather than immediately after light exposure, as observed with NSeAze. The apparent increase in lipid peroxidation explains the damage to the membranous structures of cells, such as mitochondria, lysosomes, and plasma membranes (Figure a,b). This was further confirmed by the detection of free unsaturated lipid content of cells, which is released upon disruption of the membranous structures.
(§2) Determination of lipid peroxidation
(§3) The effect of NSeMorph and NSeAze on lipid peroxidation was investigated using thiobarbituric acid reactive substances (TBARS) method,1 which is based on measuring malondialdehyde (MDA) levels, the end-product of lipid peroxidation. For this purpose, cells were seeded in 6-well plates at a density of 1 × 10^6 cells/well and incubated overnight. Afterwards, both compounds were administered in IC50 values according to the above-mentioned PDT protocol. The resulting lipid peroxidation was measured following the immediate irradiation and after 24 h of resting stage. After the indicated time periods, cells were harvested and lysed with a RIPA cell lysis buffer (Merck, Germany). The lysates were then prepared according to the TBARS assay protocol. Briefly, the samples were mixed with 0.8% thiobarbituric acid prepared in 20% trichloroacetic acid solution and then incubated for 2 h at 95 °C. Absorbance of the resulting pink-to-red color was measured at 532 nm with a spectrophotometer (Thermo, Germany). Data were expressed as % compared to untreated control group and normalized to cell viability rates (n=6). […]

U87MG cells [3] = test: Lipid peroxidation (TBARS); type: cell-based, human; settings: IC50 concentration, PDT, up to 24 h postirradiation, % of untreated control
Procedure: as §1, §2, §3

U118MG cells [4] = test: AO/EtBr staining for cell death; type: cell-based, human; settings: IC50 concentration, after irradiation
Procedure: (§4) The rapid mitochondrial disruption often shifts the balance toward irreversible cell death pathways. […] In this regard, acridine orange/ethidium bromide (AO/EtBr) staining was performed to detect cell death. […]
(§5) Acridine Orange/Ethidium Bromide (AO/EtBr) staining for cell death
(§6) Dual acridine orange/ethidium bromide (AO/EtBr) staining was performed to discriminate live, early apoptotic and/or necrotic cells on the basis of membrane permeability.1,2 U87MG and U118MG cells were seeded in 24-well plates at a density of 5 × 10⁴ cells/well and treated with the IC₅₀ concentrations of the photosensitizers NSeMorph and NSeAze. After irradiation, cells were rested at 37 °C for 20 minutes, followed by staining with AO (2.5 µg/ml) and EtBr (2.5 µg/ml) in serum-free DMEM […]
(§7) under dark conditions for an additional 20-30 minutes. Subsequently, cells were washed with 1X PBS, and confocal images were taken at 500/525 nm (ex/em) for AO […]
(§8) Ta b l e S3. Comparison of recently reported PSs for the treatment of glioblastoma multiforme.
(§9) Photosensitizer Abs* Mwt IC (μM) Cell Line PI Ref. […]

U87MG cells [5] = test: AO/EtBr staining for cell death; type: cell-based, human; settings: IC50 concentration, after irradiation
Procedure: as §4, §5, §6, §7, §8, §9

c1cc2nc3ccc(=[N+]4CCC4)cc-3[se]c2cc1N1CCC1 [NSeAze]
Photostability [1]: no significant photodecomposition | Lipid peroxidation (U118MG cells [2]): 245.24 ± 5.92% | Lipid peroxidation (U87MG cells [3]): 309.64 ± 13.20% | Cell death type (AO/EtBr) (U118MG cells [4]): late apoptosis/necrosis | Cell death type (AO/EtBr) (U87MG cells [5]): early apoptosis

c1cc2nc3ccc(=[N+]4CCOCC4)cc-3[se]c2cc1N1CCOCC1 [NSeMorph]
Photostability [1]: no significant photodecomposition | Lipid peroxidation (U118MG cells [2]): 244.22 ± 2.38% | Lipid peroxidation (U87MG cells [3]): 216.73 ± 3.98% | Cell death type (AO/EtBr) (U118MG cells [4]): early apoptotic pattern | Cell death type (AO/EtBr) (U87MG cells [5]): early apoptosis
